“Also recorded” adds a separate entry of the source.
Columns and labels:
Format in all cases: in vivo, human
post-menopausal women [1] = assay: Example 2 dose-finding study: weekly severity of moderate to severe VMS; settings: for LS adjusted mean change from baseline in weekly severity of moderate to severe VMS: week 12, ANCOVA
Text: A severity scoring system to define the different severity categories of VMS is commonly used in the technical field: • a score of mild (1) for a sensation of heat without sweating; • a score of moderate (2) for a sensation of heat with sweating/the subject is able to continue activity; and • a score of severe (3) for a sensation of heat with sweating/which causes cessation of activity.
In addition, a severity score of zero is attributed to the patients who have experienced a 100% VMS relief during a given week. From these score records, the VMS severity at baseline is typically calculated by taking into account only moderate and severe VMS, such that the total number of moderate VMS during the 7 days of the baseline week is multiplied by 2 and added to the total number of severe VMS during the 7 days of the baseline week multiplied by 3. This total is then divided by the total number of moderate and severe VMS during the baseline week.
The severity at weeks 4 and 12 is calculated using the following formula for each of these weeks: • the number of mild VMS during 7 days multiplied by 1; • the number of moderate VMS during 7 days multiplied by 2; • the number of severe VMS during 7 days multiplied by 3; and adding the 3 resulting numbers together before dividing this total by the total number of mild, moderate and severe VMS during the 7 days of the week.
All treatments (Estetrol, hereinafter E4 as monohydrate, [2.5 mg, 5 mg, 10 mg, 15 mg] capsule) were administered once daily (QD) per os for at least 12 consecutive weeks until the last biological assessments (Day 91 maximum) had been performed.
In order to better analyse the data recorded in this study, treatment groups have been compared using an ANCOVA (analysis of covariance) with respect to the change in severity of moderate to severe VMS from baseline to mild, moderate and severe VMS at week 4 and week 12 for each active treatment versus placebo. For women who experienced 100% VMS relief at week 4 and/or week 12, a value of zero was attributed. The ANCOVA model includes treatment (“trt1”) as a fixed effect and baseline (“base”) as a covariate.

post-menopausal women [2] = assay: Example 3: menopause-specific Quality of Life (MENQOL) questionnaire; settings: compared to placebo treatment
healthy women = assay: Example 2 section G: adverse events after single and 14-day multiple oral doses of Estetrol monohydrate/Drospirenone 15 mg/3 mg and 30 mg/6 mg; settings: single dose then once daily for 14 days
Procedure: The following treatments were administered to healthy women (between 15-50 years inclusive) according to the randomization code. • Placebo (n=16); • Group 15 mg: a single oral dose of 15 mg Estetrol monohydrate/3 mg Drospirenone (n=10) followed, after a washout of 14 days, by multiple oral doses of 15 mg Estetrol monohydrate/3 mg Drospirenone (n=10) once daily for 14 days; • Group 30 mg: a single oral dose of 30 mg Estetrol monohydrate/6 mg Drospirenone (n=10), followed, after a washout of 14 days, by multiple oral doses of 30 mg Estetrol monohydrate/6 mg Drospirenone (n=10) once daily for 14 days.
Adverse events were recorded from first admission until completion of the follow-up visit (between 37 to 42 days after first day of treatment).

post-menopausal women [3] = assay: Example 2: patients leaving the study
Text: 3. Patients Leaving the Study

fasting glucose = assay: Example 3: fasting glucose, change from baseline to week 12
[4] = 15 mg Estetrol monohydrate/3 mg Drospirenone
[5] = 30 mg Estetrol monohydrate/6 mg Drospirenone

C[C@]12CC[C@@H]3c4ccc(O)cc4CC[C@H]3[C@@H]1[C@@H](O)[C@@H](O)[C@@H]2O [E4 monohydrate, estetrol monohydrate]
Mean change from baseline in weekly severity of moderate to severe VMS (post-menopausal women [1]; 2.5 mg QD, week 0): 0
Mean relative change (% from baseline) in weekly severity of moderate to severe VMS (post-menopausal women [1]; 2.5 mg QD, week 0): 0%
Mean relative change (% from baseline) in weekly severity of moderate to severe VMS (post-menopausal women [1]; 2.5 mg QD, week 1): −7%
Mean relative change (% from baseline) in weekly severity of moderate to severe VMS (post-menopausal women [1]; 2.5 mg QD, week 2): −9%
Mean relative change (% from baseline) in weekly severity of moderate to severe VMS (post-menopausal women [1]; 2.5 mg QD, week 3): −14%
Mean relative change (% from baseline) in weekly severity of moderate to severe VMS (post-menopausal women [1]; 2.5 mg QD, week 4): −15%
Mean relative change (% from baseline) in weekly severity of moderate to severe VMS (post-menopausal women [1]; 2.5 mg QD, week 5): −17%
Mean relative change (% from baseline) in weekly severity of moderate to severe VMS (post-menopausal women [1]; 2.5 mg QD, week 6): −22%
Mean relative change (% from baseline) in weekly severity of moderate to severe VMS (post-menopausal women [1]; 2.5 mg QD, week 7): −20%
Mean relative change (% from baseline) in weekly severity of moderate to severe VMS (post-menopausal women [1]; 2.5 mg QD, week 8): −24%
Mean relative change (% from baseline) in weekly severity of moderate to severe VMS (post-menopausal women [1]; 2.5 mg QD, week 9): −24%
Mean relative change (% from baseline) in weekly severity of moderate to severe VMS (post-menopausal women [1]; 2.5 mg QD, week 10): −26%
Mean relative change (% from baseline) in weekly severity of moderate to severe VMS (post-menopausal women [1]; 2.5 mg QD, week 11): −25%
Mean relative change (% from baseline) in weekly severity of moderate to severe VMS (post-menopausal women [1]; 2.5 mg QD, week 12): −28%
Mean change from baseline in weekly severity of moderate to severe VMS (post-menopausal women [1]; 5 mg QD, week 0): 0
Mean relative change (% from baseline) in weekly severity of moderate to severe VMS (post-menopausal women [1]; 5 mg QD, week 0): 0%
Mean relative change (% from baseline) in weekly severity of moderate to severe VMS (post-menopausal women [1]; 5 mg QD, week 1): −4%
Mean relative change (% from baseline) in weekly severity of moderate to severe VMS (post-menopausal women [1]; 5 mg QD, week 2): −5%
Mean relative change (% from baseline) in weekly severity of moderate to severe VMS (post-menopausal women [1]; 5 mg QD, week 3): −7%
Mean relative change (% from baseline) in weekly severity of moderate to severe VMS (post-menopausal women [1]; 5 mg QD, week 4): −10%
Mean relative change (% from baseline) in weekly severity of moderate to severe VMS (post-menopausal women [1]; 5 mg QD, week 5): −7%
Mean relative change (% from baseline) in weekly severity of moderate to severe VMS (post-menopausal women [1]; 5 mg QD, week 6): −14%
Mean relative change (% from baseline) in weekly severity of moderate to severe VMS (post-menopausal women [1]; 5 mg QD, week 7): −12%
Mean relative change (% from baseline) in weekly severity of moderate to severe VMS (post-menopausal women [1]; 5 mg QD, week 8): −14%
Mean relative change (% from baseline) in weekly severity of moderate to severe VMS (post-menopausal women [1]; 5 mg QD, week 9): −14%
Mean relative change (% from baseline) in weekly severity of moderate to severe VMS (post-menopausal women [1]; 5 mg QD, week 10): −15%
Mean relative change (% from baseline) in weekly severity of moderate to severe VMS (post-menopausal women [1]; 5 mg QD, week 11): −18%
Mean relative change (% from baseline) in weekly severity of moderate to severe VMS (post-menopausal women [1]; 5 mg QD, week 12): −17%
Mean change from baseline in weekly severity of moderate to severe VMS (post-menopausal women [1]; 10 mg QD, week 0): 0
Mean relative change (% from baseline) in weekly severity of moderate to severe VMS (post-menopausal women [1]; 10 mg QD, week 0): 0%
Mean relative change (% from baseline) in weekly severity of moderate to severe VMS (post-menopausal women [1]; 10 mg QD, week 1): −8%
Mean relative change (% from baseline) in weekly severity of moderate to severe VMS (post-menopausal women [1]; 10 mg QD, week 2): −13%
Mean relative change (% from baseline) in weekly severity of moderate to severe VMS (post-menopausal women [1]; 10 mg QD, week 3): −17%
Mean relative change (% from baseline) in weekly severity of moderate to severe VMS (post-menopausal women [1]; 10 mg QD, week 5): −21%
Mean relative change (% from baseline) in weekly severity of moderate to severe VMS (post-menopausal women [1]; 10 mg QD, week 6): −26%
Mean relative change (% from baseline) in weekly severity of moderate to severe VMS (post-menopausal women [1]; 10 mg QD, week 7): −27%
Mean relative change (% from baseline) in weekly severity of moderate to severe VMS (post-menopausal women [1]; 10 mg QD, week 8): −28%
Mean relative change (% from baseline) in weekly severity of moderate to severe VMS (post-menopausal women [1]; 10 mg QD, week 9): −28%
Mean relative change (% from baseline) in weekly severity of moderate to severe VMS (post-menopausal women [1]; 10 mg QD, week 10): −29%
Mean relative change (% from baseline) in weekly severity of moderate to severe VMS (post-menopausal women [1]; 10 mg QD, week 11): −25%
Mean relative change (% from baseline) in weekly severity of moderate to severe VMS (post-menopausal women [1]; 10 mg QD, week 12): −28%
LS adjusted mean change from baseline in weekly severity of moderate to severe VMS (post-menopausal women [1]; 10 mg QD): −0.6934
Mean change from baseline in weekly severity of moderate to severe VMS (post-menopausal women [1]; 15 mg QD, week 0): 0
Mean relative change (% from baseline) in weekly severity of moderate to severe VMS (post-menopausal women [1]; 15 mg QD, week 0): 0%
Mean relative change (% from baseline) in weekly severity of moderate to severe VMS (post-menopausal women [1]; 15 mg QD, week 1): −3%
Mean relative change (% from baseline) in weekly severity of moderate to severe VMS (post-menopausal women [1]; 15 mg QD, week 2): −12%
Mean relative change (% from baseline) in weekly severity of moderate to severe VMS (post-menopausal women [1]; 15 mg QD, week 3): −20%
Mean relative change (% from baseline) in weekly severity of moderate to severe VMS (post-menopausal women [1]; 15 mg QD, week 4): −24%
Mean relative change (% from baseline) in weekly severity of moderate to severe VMS (post-menopausal women [1]; 15 mg QD, week 5): −31%
Mean relative change (% from baseline) in weekly severity of moderate to severe VMS (post-menopausal women [1]; 15 mg QD, week 6): −30%
Mean relative change (% from baseline) in weekly severity of moderate to severe VMS (post-menopausal women [1]; 15 mg QD, week 7): −34%
Mean relative change (% from baseline) in weekly severity of moderate to severe VMS (post-menopausal women [1]; 15 mg QD, week 8): −37%
Mean relative change (% from baseline) in weekly severity of moderate to severe VMS (post-menopausal women [1]; 15 mg QD, week 9): −38%
Mean relative change (% from baseline) in weekly severity of moderate to severe VMS (post-menopausal women [1]; 15 mg QD, week 10): −40%
Mean relative change (% from baseline) in weekly severity of moderate to severe VMS (post-menopausal women [1]; 15 mg QD, week 11): −42%
Mean relative change (% from baseline) in weekly severity of moderate to severe VMS (post-menopausal women [1]; 15 mg QD, week 12): −44%
LS adjusted mean change from baseline in weekly severity of moderate to severe VMS (post-menopausal women [1]; 15 mg QD): −1.042
total MENQOL scores (post-menopausal women [2]): significantly improved
TEAEs by relationship to study drug, Related, subjects reporting one or more AE (healthy women; [4]): 50%
TEAEs by relationship to study drug, Total, subjects reporting one or more AE (healthy women; [4]): 80%
TEAEs by relationship to study drug, Unrelated, subjects reporting one or more AE (healthy women; [4]): 50%
TEAEs by relationship to study drug, Related, subjects reporting one or more AE (healthy women; [5]): 50%
TEAEs by relationship to study drug, Total, subjects reporting one or more AE (healthy women; [5]): 70%
TEAEs by relationship to study drug, Unrelated, subjects reporting one or more AE (healthy women; [5]): 50%
Number of patients leaving the study (post-menopausal women [3]; 2.5 mg daily): 9
Number of patients leaving the study (post-menopausal women [3]; 5 mg daily): 11
Number of patients leaving the study (post-menopausal women [3]; 10 mg daily): 15
Number of patients leaving the study (post-menopausal women [3]; 15 mg daily): 8
fasting glucose levels (fasting glucose; 15 mg and 20 mg, after 12 weeks, monohydrate): decreased; also recorded: reduced
Fasting Glucose, mean (fasting glucose; 15 mg, Baseline): 5.156
Fasting Glucose, mean (fasting glucose; 15 mg, Week 12): 5.057
Fasting Glucose, mean (fasting glucose; 20 mg, Baseline): 5.177
Fasting Glucose, mean (fasting glucose; 20 mg, Week 12): 5.057

— patent US20260207623A1, “USE OF ESTETROL IN HEPATICALLY IMPAIRED PATIENTS” (ESTETRA SRL, priority 2022, published 2026)
